Data: patent US6541501B2, “2-(aminomethyl)-tetrahydro-9-oxa-1,3-diaza-cyclopenta[a]-naphthalenyl derivatives with antipsychotic activity” (Wyeth, priority 2001, dated 2003)
Structures can show the parent of a compound that is named as a salt.

Tests used:
[1] = biological target: T1, dopamine autoreceptor (D2 Quin.) (Rattus norvegicus, UniProt P61169); assay: Affinity for the dopamine autoreceptor, [3H]-quinpirole binding in homogenized rat striatal brain tissue
T1 construct: from tissue; host or cells: rat striatal brain tissue homogenate
T1 sequence (P61169 whole entry): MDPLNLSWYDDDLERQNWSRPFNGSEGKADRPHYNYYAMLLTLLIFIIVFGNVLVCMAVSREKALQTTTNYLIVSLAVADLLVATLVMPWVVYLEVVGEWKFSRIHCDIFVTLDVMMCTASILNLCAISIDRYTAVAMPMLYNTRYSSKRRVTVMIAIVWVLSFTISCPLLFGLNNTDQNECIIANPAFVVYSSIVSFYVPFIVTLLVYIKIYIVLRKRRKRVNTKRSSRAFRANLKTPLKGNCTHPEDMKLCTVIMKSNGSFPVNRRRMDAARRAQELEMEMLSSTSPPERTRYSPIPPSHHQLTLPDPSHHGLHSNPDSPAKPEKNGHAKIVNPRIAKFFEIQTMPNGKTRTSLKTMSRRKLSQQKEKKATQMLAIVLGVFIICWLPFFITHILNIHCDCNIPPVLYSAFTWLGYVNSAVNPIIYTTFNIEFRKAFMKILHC
Method: Affinity for the dopamine autoreceptor was established by a modification of the standard experimental test procedure of Seemen and Schaus, European Journal of Pharmacology 203: 105-109, 1991, wherein homogenized rat striatal brain tissue is incubated with [^3H]-quinpirole (Quin.) at various concentrations of test compound, filtered, washed and counted in a Betaplate scintillation counter.

dopamine D2 receptor = assay: Affinity for the dopamine D2 receptor, [3H]-spiperidone binding in homogenized limbic brain tissue; settings: ratio of IC50 D2 Spiper to IC50 D2 Quin. (LowAg/HighAg)
Method: High affinity for the dopamine D2 receptor was established by the standard experimental test procedure of Fields, et al., Brain Res., 136, […] (1977) and Yamamura et al., ed., Neurotransmitter Receptor Binding, Chapter 9, page 171, Raven Press, N.Y. (1978) wherein homogenized limbic brain tissue is incubated with [^3H]-spiperidone at various concentrations of test compound, filtered washed, and shaken with Hydrofluor scintillation cocktail (National Diagnostics) and counted in a Packard 460 CD scintillation counter.

Compound: O=c1[nH]c2c([nH]1)=C1OC(CNCc3ccccc3)CC=C1CC=2 (stereo not drawn) (as salt: oxalate) [Example 1, 8-(Benzylamino-methyl)-3,5,7,8-tetrahydro-9-oxa-1,3-diaza-cyclopenta[a]naphthalen-2-one]
- melting point: 229 °C

Compound: O=c1[nH]c2ccc3c(c2[nH]1)OC(CNCc1ccccc1)CC3 (stereo not drawn) [Example 1, 8-(Benzylamino-methyl)-3,5,7,8-tetrahydro-9-oxa-1,3-diaza-cyclopenta[a]naphthalen-2-one]
- IC50 [1]: 0.29 nM
- Ratio (dopamine D2 receptor): 309
